What was measured:
phosphorylation of IκBα = experiment: LPS induced NF-κB activation: IκBα phosphorylation in RAW264.7 cells (western blot); format: cell-based, mouse; conditions: Raw 264.7 cells pre-incubated with 4 μM for 2 h, 20 ng/ml LPS, 20 minutes, western blot
IKKβ [1] = molecular target: T1, IKKβ (Homo sapiens, UniProt O14920); experiment: IKKβ kinase inhibition; format: biochemical; conditions: table of derivatives; read-out: IKKβ (IC50)
T1 sequence (O14920 1-756): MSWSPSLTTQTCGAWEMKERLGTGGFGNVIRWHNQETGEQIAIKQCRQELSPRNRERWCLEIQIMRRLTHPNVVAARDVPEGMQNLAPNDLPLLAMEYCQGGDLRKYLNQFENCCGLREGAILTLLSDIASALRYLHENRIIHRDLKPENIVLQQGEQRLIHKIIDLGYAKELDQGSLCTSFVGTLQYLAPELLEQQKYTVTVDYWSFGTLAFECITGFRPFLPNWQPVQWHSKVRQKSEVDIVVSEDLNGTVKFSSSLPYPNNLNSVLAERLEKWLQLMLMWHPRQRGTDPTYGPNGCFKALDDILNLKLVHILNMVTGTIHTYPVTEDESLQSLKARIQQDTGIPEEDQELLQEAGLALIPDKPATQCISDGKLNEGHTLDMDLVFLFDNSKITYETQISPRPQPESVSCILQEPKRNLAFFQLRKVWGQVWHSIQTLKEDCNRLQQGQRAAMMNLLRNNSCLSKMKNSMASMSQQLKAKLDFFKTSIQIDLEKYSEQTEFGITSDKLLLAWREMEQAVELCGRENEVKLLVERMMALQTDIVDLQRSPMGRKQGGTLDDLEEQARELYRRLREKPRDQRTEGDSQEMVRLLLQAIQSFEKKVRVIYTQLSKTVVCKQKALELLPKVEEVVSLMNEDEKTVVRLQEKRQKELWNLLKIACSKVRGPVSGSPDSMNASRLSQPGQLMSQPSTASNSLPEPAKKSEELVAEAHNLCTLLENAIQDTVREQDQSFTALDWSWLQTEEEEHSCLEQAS
From the text: To further explore how (+)-ainsliadimer A inactivates IKKα/β, we conducted the molecular dynamics (MD) simulations using the first crystal structure of IKKβ^29 to sample the conformational states of IKKβ upon 223 binding. […] We next asked whether 223 could directly affect IKKβ kinase activity.

NF-κB activation = NF-κB activation (SAR analogs and biotin probes)
From the text: In order to evaluate which of them is critical for the binding of 223, we individually mutated these nine cysteine residues of IKKβ into alanines.

[2] = tested on: BGC-823 human gastric adenocarcinoma xenograft; experiment: BGC-823 xenograft in nude mice; format: in vivo; conditions: 223 25 mg/kg, qdx8; HCPT 30 mg/kg, q6dx2
Protocol: Next we further examined anti-tumor effect of 223 in vivo. Nude mice bearing a BGC-823 human gastric adenocarcinoma xenograft were treated with vehicle or 223 (25 mg/kg, qdx8) or 10-hydroxycamptothecin (HCPT), a widely used anti-tumor drug (30 mg/kg, q6dx2).

recombinant Flag-IKKα = molecular target: T2, recombinant Flag-IKKα (Homo sapiens, UniProt O15111); experiment: Binding to purified recombinant protein (SDS-PAGE, streptavidin blot); conditions: increasing concentrations
T2 construct: made in house; host or cells: 293T cells (transient transfection, anti-Flag purification)
T2 sequence (O15111 whole entry): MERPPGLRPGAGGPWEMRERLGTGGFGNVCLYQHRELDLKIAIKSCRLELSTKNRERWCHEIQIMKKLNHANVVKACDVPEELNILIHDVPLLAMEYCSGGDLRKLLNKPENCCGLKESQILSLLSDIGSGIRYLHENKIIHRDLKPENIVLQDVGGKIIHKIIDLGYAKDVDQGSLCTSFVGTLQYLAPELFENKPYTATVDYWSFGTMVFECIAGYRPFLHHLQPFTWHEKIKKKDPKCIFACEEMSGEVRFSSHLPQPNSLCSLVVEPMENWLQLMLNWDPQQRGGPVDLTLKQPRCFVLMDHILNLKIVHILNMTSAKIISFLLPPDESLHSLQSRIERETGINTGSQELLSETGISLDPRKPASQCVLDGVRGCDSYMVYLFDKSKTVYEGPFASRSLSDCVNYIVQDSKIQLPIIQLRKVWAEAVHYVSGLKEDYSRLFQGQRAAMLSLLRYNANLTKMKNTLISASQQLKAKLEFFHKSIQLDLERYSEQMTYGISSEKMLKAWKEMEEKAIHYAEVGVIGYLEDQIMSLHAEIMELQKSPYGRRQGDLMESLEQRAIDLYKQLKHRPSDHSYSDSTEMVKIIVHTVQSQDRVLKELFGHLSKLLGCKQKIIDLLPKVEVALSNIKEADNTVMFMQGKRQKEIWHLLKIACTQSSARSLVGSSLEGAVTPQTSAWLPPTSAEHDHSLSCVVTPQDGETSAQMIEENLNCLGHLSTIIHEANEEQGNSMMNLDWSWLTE
Protocol: To determine whether 223 directly binds to IKKα and IKKβ, we generated recombinant IKKα and IKKβ proteins for further analysis. 293T cells were transfected with Flag-IKKα or Flag-IKKβ plasmid, and the recombinant Flag-IKKα or Flag-IKKβ was captured by anti-Flag agarose beads and was then eluted off the beads using Flag peptide. The purified Flag-IKKα or Flag-IKKβ was incubated with DMSO or increasing concentrations of Probe, and then the mixtures were resolved by SDS-PAGE, followed by immunoblotting with streptavidin or anti-Flag antibody.

[3] = tested on: IKKβ C215 containing peptides #3 and #4; experiment: Peptide binding by MALDI-TOF; set-up: species or system human
[4] = tested on: IKKβ C46 containing peptide (#1, #2; amino acids 41-53); experiment: Peptide binding by MALDI-TOF; set-up: species or system human
Protocol: (§1) This peptide was tested for binding to 223 and probe by using MALDI-TOF (Matrix-Assisted […] Desorption/Ionization Time of Flight). m/z values at 2,047.978 and 2,479.259 were well matched with the calculated weights of #1+223 and #1+Probe, respectively. […] As expected, the peptide #2 containing amino acids 41-53 of human IKKβ interacted with both 223 and probe.

[5] = molecular target: T3, IKKβ C46 containing peptide (#1, #2; amino acids 41-53) (Homo sapiens, UniProt O14920); experiment: Peptide binding by MALDI-TOF
T3 construct: encompasses amino acids 41-53 of human IKKβ; made in house; host or cells: chemical peptide synthesis
Protocol: as §1

[6] = tested on: peptides 1A, 2A, 1S and 2S (cysteine 46 replaced by alanine or serine); experiment: Peptide binding by MALDI-TOF; set-up: species or system human
IKKα = molecular target: T4, IKKα (Homo sapiens, UniProt O15111); experiment: Pull-down from 293T cell lysates with streptavidin agarose beads; format: binding
T4 construct: endogenous in cells; host or cells: 293T
T4 sequence (O15111 whole entry): as above
Protocol: (§2) To identify cellular proteins interacting with 223, we performed pull-down experiments using Probe and NC as the positive and negative probe, respectively. 293T cell lysates were incubated with streptavidin agarose beads which were pre-coupled with positive probe or negative probe. The proteins precipitated by streptavidin agarose beads were resolved by SDS-PAGE and stained with silver. […] We further monitored the presences of IKKα and IKKβ in the precipitates by immunoblotting.

IKKβ [7] = molecular target: T1, IKKβ; experiment: as above; format: binding
Protocol: as §2

C=C1C(=O)O[C@@H]2[C@@H]3[C@@H](C[C@@]4(O)[C@]3(O)CC[C@]43C(=O)C[C@H]4C(=C)CC[C@H]5C(=C)C(=O)O[C@@H]5[C@H]43)C(=C)CC[C@@H]12 [Compound 1]
phosphorylation of IκBα (phosphorylation of IκBα): effectively blocked
IC50 (IKKβ [1]): 75.7 nM

C=C1C(=O)O[C@@H]2[C@@H]3[C@@H](C[C@@]45OC(C)(C)O[C@@]34CC[C@]53C(=O)C[C@H]4C(=C)CC[C@H]5C(=C)C(=O)O[C@@H]5[C@H]43)C(=C)CC[C@@H]12 [Compound 2]
phosphorylation of IκBα (phosphorylation of IκBα): effectively blocked
IC50 (IKKβ [1]): 56 nM

C=C1CC[C@H]2C(CN(C)C)C(=O)O[C@@H]2[C@@H]2[C@H]1C[C@@]13OC(C)(C)O[C@@]21CC[C@]31C(=O)C[C@H]2C(=C)CC[C@H]3C(CN(C)C)C(=O)O[C@@H]3[C@H]21 (stereo partly shown) [Compound 3]
phosphorylation of IκBα (phosphorylation of IκBα): effectively blocked
IC50 (IKKβ [1]): 41.8 nM

C=C1C(=O)O[C@@H]2[C@@H]3[C@@H](C[C@H](O)[C@]34CC[C@]3(O)[C@@H]5[C@H]6OC(=O)C(=C)[C@@H]6CCC(=C)[C@@H]5C[C@]43O)C(=C)CC[C@@H]12 [Compound 224]
biological activity (initial SAR) (NF-κB activation): fully retain the biological activity

C=C1CC[C@@H]2[C@H](OC(=O)[C@H]2C)[C@@H]2[C@H]1C[C@@]1(O)[C@]2(O)CC[C@]12C(=O)C[C@H]1C(=C)CC[C@@H]3[C@H](OC(=O)[C@H]3C)[C@H]12 [Compound 225]
biological activity (initial SAR) (NF-κB activation): inactive

CC[C@@]1(O)C(=O)OCc2c1cc1n(c2=O)Cc2cc3cc(O)ccc3nc2-1 [HCPT, 10-hydroxycamptothecin, reference compound]
side effects and body weight during administration [2]: significant body weight loss

C=C1C(=O)O[C@@H]2[C@@H]3[C@@H](C[C@H](OC(=O)CCOCCOCCOCCNC(=O)CCCC[C@@H]4SC[C@@H]5NC(=O)N[C@@H]54)[C@]34CC[C@]3(O)[C@@H]5[C@H]6OC(=O)C(=C)[C@@H]6CCC(=C)[C@@H]5C[C@]43O)C(=C)CC[C@@H]12 [Probe]
interaction with recombinant IKKα (recombinant Flag-IKKα): strong interaction
association with peptides #3 and #4 [3]: no association
interaction with peptide #2 [4]: interacted
binding to peptide #1 [5]: could bind
binding to peptides 1A, 2A, 1S and 2S [6]: lost the ability to bind
pull-down of IKKα (immunoblotting) (IKKα): specifically pulled down
pull-down of IKKβ (immunoblotting) (IKKβ [7]): specifically pulled down

Source: US9670226B2, “Sesquiterpenoids” (National Institute of Biological Sciences, Beijing, priority 2014, dated 2017)
